# According to patent publication US11925690B2, “Bifunctional molecules for targeting Rpn11” (AMPHISTA THERAPEUTICS LTD, priority 2018, dated 2024):
# Columns and labels:
# Assay type in all cases: cell-based
# Brd2 [1] = biological target: T1, Brd2 (Homo sapiens, UniProt P25440); experiment: Concentration-dependent BET degradation, immunoblot; set-up: endogenous in cells; host or cells: HEK293 (CRL-1573), HeLa (CCL-2); details: 1 nM-10 μM
# Protocol: (§1) Immunoblotting. Proteins were separated by SDS-PAGE on NuPage 4-12% Bis-Tris gels, followed by transfer to Amersham Protran 0.45 NC nitrocellulose membrane (GE Healthcare) using wet transfer. Membranes were blocked using 5% w/v milk in Tris-buffered saline (TBS) with 0.1% Tween-20. Blots were probed (overnight at 4 °C) using anti-Brd2 (Abcam ab139690, 1:2,000 dilution), anti-Brd3 (Abcam ab50818, 1:500 dilution), and anti-Brd4 (Abcam ab128874, 1:1,000 dilution) primary antibodies, as appropriate. The next day, blots were washed with TBST and incubated (1 h at Room temperature) with anti-Tubulin hFAB-rhodamine (BioRad, 12004166) primary antibody, and either anti-rabbit IRDye 800CW (Licor 1:1,000 dilution) or anti-mouse IRDye 800CW (Licor 1:1,000 dilution) secondary antibody. Blots were developed using a Bio-Rad ChemiDoc MP Imaging System, and band quantification was performed using Image Studio software (LiCor). Band intensities were normalized to the tubulin loading control and reported as % of the average 0.1% DMSO vehicle intensity. Degradation data was plotted and analysed using Prism (Graphpad, version 8).
# (§2) HeLa (5×10^5) and HEK293 (1×10^6) cells were seeded in standard 6-well plates (2 mL medium) overnight before treatment with compounds at the desired concentration (1 nM-10 μM), with a final DMSO concentration of 0.1% v/v. After 4 h treatment time, cells were washed with DPBS (Gibco) and lysed using 85 μL RIPA buffer (Sigma-Aldrich) supplemented with cOmplete Mini EDTA-free protease inhibitor cocktail (Roche) and benzonase. Lysates were clarified by centrifugation (20000 g, 10 min, 4° C.) and the total protein content of the supernatant was quantified using a Bradford colorimetric assay. Samples were prepared using equal amounts of total protein and LDS sample buffer (Invitrogen). Band intensities were normalized to the tubulin loading control and reported as % of the average 0.1% DMSO vehicle intensity. Degradation data was plotted and analysed using Prism (Graphpad, version 8).
# (§3) MZ1 and 11JQ17 were used at 1 μM for positive and negative controls, respectively. […] For the table, Dmax: +(Dmax≤25%); ++(26%≤Dmax≤50%); +++(51%≤Dmax≤70%); ++++(71%≤DC50: A (DC50≤50 nM); B (51 nM≤DC50≤500 nM); C (501 nM≤DC50).
# Brd3 [2] = biological target: T2, Brd3 (Homo sapiens, UniProt Q15059); experiment: as above; set-up: endogenous in cells; host or cells: HEK293 (CRL-1573), HeLa (CCL-2); details: 1 nM-10 μM
# T2 sequence (Q15059 whole entry): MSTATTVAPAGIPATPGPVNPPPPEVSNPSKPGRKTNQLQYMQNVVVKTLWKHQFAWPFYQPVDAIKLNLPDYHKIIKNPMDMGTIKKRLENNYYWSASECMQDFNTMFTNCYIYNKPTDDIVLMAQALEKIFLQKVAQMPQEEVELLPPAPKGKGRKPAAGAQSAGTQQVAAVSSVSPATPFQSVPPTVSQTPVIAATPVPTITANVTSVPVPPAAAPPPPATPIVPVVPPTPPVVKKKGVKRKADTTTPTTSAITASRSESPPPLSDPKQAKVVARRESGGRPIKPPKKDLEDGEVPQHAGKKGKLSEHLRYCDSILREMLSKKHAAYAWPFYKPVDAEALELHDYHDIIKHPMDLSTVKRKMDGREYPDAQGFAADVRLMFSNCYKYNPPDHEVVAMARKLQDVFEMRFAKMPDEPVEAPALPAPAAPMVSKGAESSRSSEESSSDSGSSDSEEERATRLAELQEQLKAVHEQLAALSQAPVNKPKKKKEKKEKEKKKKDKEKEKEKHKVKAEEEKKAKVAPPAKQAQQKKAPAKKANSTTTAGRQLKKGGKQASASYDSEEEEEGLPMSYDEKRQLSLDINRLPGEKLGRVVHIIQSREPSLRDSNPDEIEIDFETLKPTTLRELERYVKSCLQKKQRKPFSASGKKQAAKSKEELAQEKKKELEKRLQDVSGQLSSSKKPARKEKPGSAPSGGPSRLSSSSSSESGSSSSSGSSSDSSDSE
# Protocol: as §1, §2, §3
# Brd4 = biological target: T3, Brd4 (Homo sapiens, UniProt O60885); experiment: Immunoblot analysis of Brd4 in HEK293 cells (prodrug activity, negative SAR); details: HEK293, 1 μM, 4 h, n=3
# T3 construct: immunoblot analysis of Brd4 following 4 h treatment of HEK293 cells; endogenous in cells; host or cells: HEK293 (CRL-1573)
# Protocol: as §1, with “8). […]” for “8).”
# HEK293 (1×10^6) cells incubated with DMSO, 1 μM 11JQ15 or 1 μM 11JQ17 for 4 h with a final DMSO concentration of 0.1% v/v. […] Degradation data was plotted and analysed using Prism (Graphpad, version 8), where bars are mean±SEM of three independent experiments.
# Brd4 (S) [3] = biological target: T4, Brd4 (S) (Homo sapiens, UniProt O60885); experiment: Concentration-dependent BET degradation, immunoblot; details: 4 h, 1 nM-10 μM
# T4 construct: endogenous in cells; host or cells: HEK293 (CRL-1573), HeLa (CCL-2)
# Protocol: as §1, §2, §3
# Brd4 (L) [4] = biological target: T5, Brd4 (L) (Homo sapiens, UniProt O60885); experiment: as above; details: 4 h, 1 nM-10 μM
# T5 construct: endogenous in cells; host or cells: HEK293 (CRL-1573), HeLa (CCL-2)
# Protocol: as §1, §2, §3
# HEK293 cells = experiment: Unbiased whole proteome analysis by TMT-labelling MS; details: HEK293, 1 μM, 4 h, n=3
# Protocol: HEK293 (2.2×10 6) cells were seeded in 10 cm plates (10 mL medium) overnight before treatment with 1 μM compound for a final DMSO concentration of 0.1% v/v. After 4 h incubation time, cells were washed with 2× with DPBS (Gibco) and lysed using 500 μL lysis buffer (100 mM Tris, 4% (w/v) SDS, pH 8.0) supplemented with cOmplete Mini EDTA-free protease inhibitor cocktail (Roche) and benzonase. Lysates were briefly sonicated (2×10 s), clarified by centrifugation (20000 g, 10 min, 4° C.) and the total protein content of the supernatant was quantified using a BCA assay (Thermo Fisher Scientific).
# Sample processing, digestion, desalting, labelling, and fractionation were performed at Fingerprint Proteomics (University of Dundee) as described previously [Gadd et al. 10.1038/nchembio.2329]. FIG. 7 depicts fold change of abundance of 7882 proteins comparing 11JQ15 to DMSO treatment (left) and comparing 1 μM 11JQ17 to DMSO treatment (right), as well as their respective p-values (t-test; n=3).
# Brd4 (S) [5] = biological target: T4, Brd4 (S); experiment: Time-dependent BET degradation, immunoblot; set-up: Dmax: dose or concentration left out as unconfirmed; details: HEK293, Brd4 (S)
# Protocol: as §1
# as §2, with “HEK293” for “HeLa (5×10^5) and HEK293”, “(0.5×10^6)” for “(1×10^6)”, “1 μM concentration,” for “the desired concentration (1 nM-10 μM),”, “incubation for the desired time (0-24 hrs),” for “4 h treatment time,”, “complete” for “cOmplete”
# (§4) MZ1 and 11JQ17 were used at 1 μM (4 h) for positive and negative controls, respectively. […]
# Brd4 (L) [6] = biological target: T5, Brd4 (L); experiment: Time-dependent BET degradation, immunoblot; set-up: Dmax: dose or concentration left out as unconfirmed; details: HEK293, Brd4 (L)
# Protocol: as §1
# as §2, with “HEK293” for “HeLa (5×10^5) and HEK293”, “(0.5×10^6)” for “(1×10^6)”, “1 μM concentration,” for “the desired concentration (1 nM-10 μM),”, “incubation for the desired time (0-24 hrs),” for “4 h treatment time,”, “complete” for “cOmplete”
# as §4
# Brd2 [7] = biological target: T1, Brd2; experiment: Time-dependent BET degradation, immunoblot; details: HEK293, Brd2, 1 μM
# Protocol: as §1
# as §2, with “HEK293” for “HeLa (5×10^5) and HEK293”, “(0.5×10^6)” for “(1×10^6)”, “1 μM concentration,” for “the desired concentration (1 nM-10 μM),”, “incubation for the desired time (0-24 hrs),” for “4 h treatment time,”, “complete” for “cOmplete”
# as §4
# Brd3 [8] = biological target: T2, Brd3; experiment: Time-dependent BET degradation, immunoblot; details: HEK293, Brd3, 1 μM
# Protocol: as §1
# as §2, with “HEK293” for “HeLa (5×10^5) and HEK293”, “(0.5×10^6)” for “(1×10^6)”, “1 μM concentration,” for “the desired concentration (1 nM-10 μM),”, “incubation for the desired time (0-24 hrs),” for “4 h treatment time,”, “complete” for “cOmplete”
# as §4
# [9] = 1 μM, time to deplete 50% of the protein relative to DMSO
# [10] = 1 μM, time to reach 50% of the Dmax
# [11] = time to deplete 50% of the protein relative to DMSO
# T1 sequence (P25440 whole entry): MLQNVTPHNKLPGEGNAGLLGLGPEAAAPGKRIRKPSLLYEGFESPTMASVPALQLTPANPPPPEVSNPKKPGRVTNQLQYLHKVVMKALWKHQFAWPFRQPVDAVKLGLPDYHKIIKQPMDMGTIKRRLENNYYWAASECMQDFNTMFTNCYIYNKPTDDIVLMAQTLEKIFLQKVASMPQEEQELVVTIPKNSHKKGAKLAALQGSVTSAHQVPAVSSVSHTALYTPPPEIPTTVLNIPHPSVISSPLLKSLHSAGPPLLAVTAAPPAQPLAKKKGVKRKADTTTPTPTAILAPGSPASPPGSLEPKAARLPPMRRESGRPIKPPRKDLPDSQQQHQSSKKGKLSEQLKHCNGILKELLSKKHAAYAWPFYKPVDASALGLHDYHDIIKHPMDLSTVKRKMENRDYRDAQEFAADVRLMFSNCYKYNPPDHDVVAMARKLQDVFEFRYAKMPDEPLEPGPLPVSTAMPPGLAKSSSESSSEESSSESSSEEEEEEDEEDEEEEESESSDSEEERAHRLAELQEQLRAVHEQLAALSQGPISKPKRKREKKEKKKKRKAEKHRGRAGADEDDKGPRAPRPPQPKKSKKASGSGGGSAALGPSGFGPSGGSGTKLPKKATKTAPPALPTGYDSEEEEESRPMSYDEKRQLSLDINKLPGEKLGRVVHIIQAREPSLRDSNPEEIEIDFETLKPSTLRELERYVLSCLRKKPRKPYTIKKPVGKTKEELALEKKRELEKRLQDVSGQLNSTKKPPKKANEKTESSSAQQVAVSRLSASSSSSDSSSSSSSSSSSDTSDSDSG
smiles,measurement,setting,value
Cc1sc2c(c1C)C(c1ccc(Cl)cc1)=N[C@@H](CC(=O)NCCOCCNC(=O)c1cc(SC(C)(C)C)c3ncc(C(=O)NCCc4nccs4)cc3c1)c1nnc(C)n1-2 [Example 11JQ17],Dmax,"Brd2 [1]; HEK293, Brd2, 4 h",≤ 25%
same,Dmax,"Brd2 [1]; HeLa, Brd2, 4 h",≤ 25%
same,Dmax,"Brd3 [2]; HEK293, Brd3, 4 h",≤ 25%
same,Dmax,"Brd3 [2]; HeLa, Brd3, 4 h",≤ 25%
same,Brd4 levels (FIG. 3),Brd4,minimal depletion
same,Dmax,"Brd4 (S) [3]; HEK293, Brd4 (S)",≤ 25%
same,Dmax,Brd4 (S) [3]; HeLa,≤ 25%
same,Dmax,"Brd4 (L) [4]; HEK293, Brd4 (L)",≤ 25%
same,Dmax,Brd4 (L) [4]; HeLa,≤ 25%
same,fold change of abundance of 7882 proteins vs DMSO (FIG. 7),HEK293 cells,does not show any BET depletion
Cc1sc2c(c1C)C(c1ccc(Cl)cc1)=N[C@@H](CC(=O)NCCOCCNC(=O)c1cc(S)c3ncc(C(=O)NCCc4nccs4)cc3c1)c1nnc(C)n1-2 [Example 11JQ1],DC50,"Brd2 [1]; HEK293, Brd2, 4 h",51 to 500 nM
same,Dmax,"Brd2 [1]; HEK293, Brd2, 4 h",≥ 71%
same,DC50,"Brd2 [1]; HeLa, Brd2, 4 h",51 to 500 nM
same,Dmax,"Brd2 [1]; HeLa, Brd2, 4 h",26 to 50%
same,DC50,"Brd3 [2]; HEK293, Brd3, 4 h",≥ 501 nM
same,Dmax,"Brd3 [2]; HEK293, Brd3, 4 h",51 to 70%
same,DC50,"Brd3 [2]; HeLa, Brd3, 4 h",≥ 501 nM
same,Dmax,"Brd3 [2]; HeLa, Brd3, 4 h",51 to 70%
same,DC50,"Brd4 (S) [3]; HEK293, Brd4 (S)",51 to 500 nM
same,Dmax,"Brd4 (S) [3]; HEK293, Brd4 (S)",≥ 71%
same,DC50,Brd4 (S) [3]; HeLa,51 to 500 nM
same,Dmax,Brd4 (S) [3]; HeLa,≥ 71%
same,DC50,"Brd4 (L) [4]; HEK293, Brd4 (L)",51 to 500 nM
same,Dmax,"Brd4 (L) [4]; HEK293, Brd4 (L)",≥ 71%
same,DC50,Brd4 (L) [4]; HeLa,51 to 500 nM
same,Dmax,Brd4 (L) [4]; HeLa,≥ 71%
same,Dmax,Brd4 (S) [5]; 0-24 hrs,95%
same,Abs. T1/2,Brd4 (S) [5]; [9],1.9 h
same,T1/2,Brd4 (S) [5]; [10],2 h
same,Dmax,Brd4 (L) [6]; 0-24 hrs,95%
same,Abs. T1/2,Brd4 (L) [6]; [9],1.7 h
same,T1/2,Brd4 (L) [6]; [10],1.6 h
same,Dmax at 1 µM,Brd2 [7]; 0-24 hrs,60%
same,Abs. T1/2,Brd2 [7]; [11],3.5 h
same,T1/2,Brd2 [7]; time to reach 50% of the Dmax,1.0 h
same,Dmax at 1 µM,Brd3 [8]; 0-24 hrs,90%
same,Abs. T1/2,Brd3 [8]; [11],3.5 h
same,T1/2,Brd3 [8]; time to reach 50% of the Dmax,2.7 h
